Legend:
[1] = system: effects of scopolamine on the band from 6.4 to 9.6 Hz in the EEG; assay: Inhibition of the effects of scopolamine on the electroencephalogram (EEG); assay type: in vivo, male albino Sprague-Dawley rats; parameters: inhibition: dose or concentration left out as unconfirmed; settings: Rattus norvegicus, ip; read-out: Inhibition (percentage of reduction in the increase in the intensity of the band from 6.4 to 9.6 Hz)
Protocol: Male albino Sprague-Dawley SPF rats (160 to 200 g) are used in this test. When the animals are 3 months old, 5 cortical electrodes are implanted permanently, aseptically and under a general anesthesia: one inert electrode, one left and one right frontal electrode, and one left and one right occipital electrode (P. ETEVENON, loc.cit.). The test is carried out when the animals are about 15 months old. In the meantime, the animals are kept in individual cages. They are given water and food ad libitum and are subjected to a regular daily cycle comprising a period of darkness between 6 o'clock in the evening and 6 o'clock in the morning. At the same time, the animals are progressively acclimatized to the cages of the sound-proof cabin which they will subsequently occupy for recording of the electroencephalograms, as well as to the experimental conditions, by intraperitoneal administration of placebo. The products are administered immediately before the EEG is recorded. The rats are divided into groups of 8 animals and 16 samples of the EEG spectra are recorded over 5 seconds (two EEG spectra per animal). The spectra obtained are then analyzed by computer (rapid Fourier transform), which enables the average of the 16 measurements performed to be determined for each group and the overall intensity of the EEG spectrum and the distribution of this intensity (in %) in the various frequency bands to be deduced for each animal. This operation (recording of the spectra) is repeated 9 times (total

Toxicity (Irwin's test) = assay type: in vivo
Protocol: Progressive doses of the compound to be tested are administered intraperitoneally to groups of three mice until the lethal dose is reached (dose which causes the death of two animals out of three within 48 hours).

| Compound | inhibition [1] | Lethal dose (death of two animals out of three within 48 hours) (Toxicity (Irwin's test); mouse, in vivo, ip) | Lethal dose (death of two animals out of three within 48 hours) (Toxicity (Irwin's test); mice, intraperitoneal) |
| --- | --- | --- | --- |
| CCCc1nc(NC(CC)CO)nc(N2CCOCC2)n1 (centres unmarked) [Compound 7] | 50% | 886 mg/kg | – |
| CCCc1nc(N2CCOCC2)nc(N(C)C(=O)C(C)C)n1 [Compound 26] | 55.6% | 922 mg/kg | – |
| CCCc1nc(NC(=O)c2ccccc2)nc(N2CCOCC2)n1.Cl [Compound 22, N-(4-morpholino-6-propyl-1,3,5-triazin-2-yl)-benzamide hydrochloride] | 66.7% | – | 1091 mg/kg |
| CCCc1nc(NC(C)=O)nc(N2CCOCC2)n1 [Compound 21a, N-(4-Morpholino-6-propyl-1,3,5-triazin-2-yl)-acetamide] | 100% | – | 996 mg/kg |
| CCCc1nc(NCCO)nc(N2CCOCC2)n1 [Compound 1, 2-[(4-morpholino-6-propyl-1,3,5-triazin-2-yl)amino]-ethanol] | 52% | – | 802 mg/kg |
| CCCc1nc(N2CCOCC2)nc(N(C)C(C)=O)n1 [Compound 25a] | 46.7% | 838 mg/kg | – |
| CCCc1nc(N2CCOCC2)nc(N(CCOC(C)=O)C(C)=O)n1 [Compound 43, N-[2-(Acetoxy)ethyl]-N-(4-morpholino-6-propyl-1,3,5-triazin-2-yl)-acetamide] | 77.8% | – | 351 mg/kg |
| CCCc1nc(N(C)CCO)nc(N2CCOCC2)n1 [Compound 9] | 53.3% | 844 mg/kg | – |
| CCCc1nc(NC(=O)c2ccc(C)cc2)nc(N2CCOCC2)n1 [Compound 33] | – | – | 1132 mg/kg |
| CCCc1nc(NC(=O)c2ccc(C)c(C)c2)nc(N2CCOCC2)n1 [Compound 36] | – | – | 1174 mg/kg |
| CCCc1nc(NC[C@H](C)O)nc(N2CCOCC2)n1 [Compound 16, (S)-3-[(4-morpholino-6-propyl-1,3,5-triazin-2-yl)amino]-2-propanol] | – | – | 844 mg/kg |
| CCCc1nc(NCCOC(C)=O)nc(N2CCOCC2)n1 [Compound 37, 2-[[2-(acetoxy)ethyl]amino]-4-morpholino-6-propyl-1,3,5-triazine] | 53.3% | – | 928 mg/kg |
| CCCc1nc(N2CCOCC2)nc(N(C)C(=O)c2ccccc2)n1.Cl [Compound 27, N-methyl-N-(4-morpholino-6-propyl-1,3,5-triazin-2-yl)-benzamide hydrochloride] | 93.8% | – | 1133 mg/kg |
| CCCc1nc(N2CCOCC2)nc(N(C)C(=O)c2ccc(OC)c(OC)c2)n1 [Compound 35] | – | – | 401 mg/kg |
| CCCc1nc(NC(CO)(CO)CO)nc(N2CCOCC2)n1 [Compound 12] | – | – | 982 mg/kg |
| CCCc1nc(NCCOC(=O)Cc2ccccc2)nc(N2CCOCC2)n1 [Compound 40] | – | – | 1157 mg/kg |
| CCCc1nc(NCCCO)nc(N2CCOCC2)n1 [Compound 3] | – | – | 844 mg/kg |
| CCCc1nc(NC[C@@H](C)O)nc(N2CCOCC2)n1 [Compound 17] | – | – | 844 mg/kg |
| CCCc1nc(NCC(O)CO)nc(N2CCOCC2)n1 (centres unmarked) [Compound 11] | – | – | 892 mg/kg |
